Measurements: patent US20030108526A1, “Microorganisms for use in the measurement of environmental factors” (priority 2001, published 2003)

What was measured:
ZmHK1 = assay: Cytokinin sensor function and sensitivity of ZmHK1 in E. coli KMI001 (colony color on LAGX agar); format: cell-based, maize
Source text: The protein coding region of pZmHK1 was amplified by PCR and ligated to the BamHI/BSalI site of pIN-IIIΔEH plasmid. Primer sequences used in the PCR amplification are as described below.
Plasmid pIN-IIIΔEH has a promoter that constitutively directs weak expression of a foreign gene in E. coli. The resultant plasmid was designated pIN-III-ZmHK.
The constructed plasmid was transformed into E. coli KMI001 [ΔrcsC, cps::lacZ]. This E. coli strain is a strain in which cps gene involved in polysaccharide synthesis and a binary regulatory factor consisting of rcsC-rcsB (an expression regulatory system for cps) are partially modified. Specifically, sensor histidine kinase gene rcsC is deleted, and β-galactosidase (a marker gene) is inserted downstream of the promoter of cps gene. The resultant transformant was cultured in 2 ml of LAG liquid medium (1% Bacto tryptone, 0.5% Bacto yeast extract, 1% NaCl, 40 mM glucose, 50 mM phosphate buffer, pH 7.0) overnight at 25° C. The resultant culture broth was centrifuged and the supernatant was discarded. The E. coli cell pellet was washed twice in sterilized water and suspended in 2 ml (final volume) of sterilized water. This suspension was spotted at two points each on LAGX agar medium (1% Bacto tryptone, 0.5% Bacto yeast extract, 1% NaCl, 40 mM glucose, 50 mM phosphate buffer, pH 7.0, 80 μg/ml X-gal, 1.5% agarose) containing 1 μM trans-zeatin (t-zeatin) and on LAGX agar medium not containing t-zeatin, and cultured overnight (12 hr) at 25° C. The next day, the color of each colony was observed.
E. coli suspension was prepared in the same manner as in Example 4. Subsequently, the suspension was spotted on LAGX agar medium containing t-zeatin at varied concentrations from 0 nM to 1000 nM, and cultured overnight (12 hr) at 25° C. The next day, the color of each colony was observed.

AHK4 = AHK4 (Arabidopsis thaliana, UniProt Q9C5U0); details: experimental conditions of Example 4; Plant Cell Physiol 2001, 42: 107-113; cited from earlier work
[1] = tested on: cps::lacZ (β-galactosidase) expression in E. coli KMI001; assay: Examination of biosensor function: IPTG-induced sensor E. coli or its supernatant with receptor-transferred marker E. coli; format: cell-based, Escherichia coli; details: 1 mM IPTG, Examples 6 and 7
Source text: (§1) The next day, the color of each colony was observed.
as §1

Sequence of AHK4 (Q9C5U0 whole entry): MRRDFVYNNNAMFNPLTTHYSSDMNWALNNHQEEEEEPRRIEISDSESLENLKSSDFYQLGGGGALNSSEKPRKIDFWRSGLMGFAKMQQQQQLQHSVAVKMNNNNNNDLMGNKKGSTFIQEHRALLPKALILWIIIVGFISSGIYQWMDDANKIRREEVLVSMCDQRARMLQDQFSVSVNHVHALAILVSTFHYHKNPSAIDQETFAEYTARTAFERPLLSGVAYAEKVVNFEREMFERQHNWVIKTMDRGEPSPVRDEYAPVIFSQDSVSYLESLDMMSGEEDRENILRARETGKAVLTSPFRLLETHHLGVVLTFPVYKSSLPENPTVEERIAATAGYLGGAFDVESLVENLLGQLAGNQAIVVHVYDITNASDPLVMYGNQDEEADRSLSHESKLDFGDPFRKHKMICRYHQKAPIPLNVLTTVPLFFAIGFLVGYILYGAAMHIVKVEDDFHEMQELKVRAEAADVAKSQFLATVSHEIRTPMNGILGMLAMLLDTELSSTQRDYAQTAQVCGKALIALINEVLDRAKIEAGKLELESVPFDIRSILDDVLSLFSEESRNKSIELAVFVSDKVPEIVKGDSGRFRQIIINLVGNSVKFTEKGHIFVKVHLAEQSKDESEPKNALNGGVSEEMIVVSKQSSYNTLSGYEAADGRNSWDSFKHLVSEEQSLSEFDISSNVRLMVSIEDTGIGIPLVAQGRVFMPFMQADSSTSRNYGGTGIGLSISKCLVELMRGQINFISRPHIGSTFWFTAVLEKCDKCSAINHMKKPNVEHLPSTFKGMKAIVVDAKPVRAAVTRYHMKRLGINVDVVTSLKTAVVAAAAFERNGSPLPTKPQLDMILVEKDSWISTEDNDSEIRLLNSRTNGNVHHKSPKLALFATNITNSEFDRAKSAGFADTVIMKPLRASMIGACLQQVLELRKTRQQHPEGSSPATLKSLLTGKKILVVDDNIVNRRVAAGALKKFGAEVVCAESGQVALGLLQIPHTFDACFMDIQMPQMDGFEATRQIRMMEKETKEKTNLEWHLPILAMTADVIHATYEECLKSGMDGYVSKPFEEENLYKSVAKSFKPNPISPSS

| Molecule | β-galactosidase expression of ZmHK1-transferred E. coli in response to the cytokinin in the medium (ZmHK1; 1 μM t-zeatin in LAGX agar, 12 hr, 25° C.) | t-zeatin concentration to which ZmHK1-transferred E. coli responds (ZmHK1; LAGX agar with 0 nM to 1000 nM t-zeatin, 12 hr, 25° C.) | lowest t-zeatin concentration to which AHK4-transferred E. coli is able to respond (AHK4) | Biosensor response (blue colony color) of receptor-transferred transformant to IPTG [1] | ability to perceive cytokinins compared to that of AHK4 (ZmHK1) | color development of transferred E. coli spot compared with AHK4-transferred E. coli spots (ZmHK1; FIG. 1, 1 μM t-zeatin) |
| --- | --- | --- | --- | --- | --- | --- |
| C/C(=C\CNc1ncnc2nc[nH]c12)CO [t-zeatin, trans-zeatin] | expressed β-galactosidase | ≤ 10 µM | approx. 50 nM |  |  |  |
| AHK4: Arabidopsis thaliana cytokinin receptor (sensor protein) |  |  |  | did not present a blue color |  |  |
| ZmHK1: maize cytokinin receptor, 974 amino acids, SEQ ID NO: 2 (protein, Zea mays) MGGKYRAARTKRWWRGLAAAGWVLTAVVCSAVMHWTLRRDSMDRAEERLVSMCEERARMLQEQFGVTVNHVHAIAILISTFNFEKSPPAIDQDTFAKYTARTSFERPLLNGVAFAQRVFHHEREMFESQQGWVMNTMQREPAPPQVEYAPVIFSQDTVSYLARIDMMSGEEDRENIFRARTTGKAVLTNPFRLLGSNHLGVVLTFAVYRPDLPADASVEQRVEATIGYLGGAFDVESLVENLLSKLAGNQDIVVNVYDVTNASDAMVLYGPSSLDEQVPFLHVSMLDFGDPFRKHEMRCRYRQKLPMPWSAITNPLGTFVIWMLLGYSIAAAYSRYDKVTEDCRKMEELKTQAEAADVAKSQFLATASHEIRTPMNGVLGMLDMLLGTDLTMTQKDYAQTAQMCGRALITLINDVLDRAKIEAGKLELEAVPFDLRSLMDDVVSLFSSKSREKCIELAVFVCDNVPKVVIGDPWRFRQILTNLVGNAVKFTERGHVFVRVCLAENSNMEANQVLHGAMNGKGGRVESTANGAFNTLSGFEAADRRNSWQYFKLLLSDKESLLDDLESENSNQSDSDRVTLAISIEDTGVGIPLQAQDRVFTPFMQADSSTSRNYGGTGIGLSISKCLAELMGGQISFTSHPSVGSTFTFSATLKHSHKDISGDSSRSLTEALPTAFKGMKAILVDGRPVRSAVTRYHLKRLGILLQVVNNMNAVVKAFPGQNGAAGSREKASILFIESDFWRPETDVQLLNHLREQKNGQLSDGHKVVLLVTSEADKDKYGSIFDIVMCKPIRASTIASSIQQLLKVEIAERKDNQNRPSFLRSLLVGKNILVVDDNKVNLRVAAAALKKYGANVSCVESGKDAISLLQPPHRFDACFMDVQMPEMDGFEATGQIRQMELKANEERKNKLASIEGSTTAEYHLPVLAMTADVIQATYEECIKSGMDGYVSKPFDEEQLYQAVSRLVVGTTDSAV |  |  |  | discriminated the presence or absence of a specific substance | approximately 10 fold | more intensive color development |
